Measurements as given in ChEMBL document CHEMBL4619722, “Alanine scan-guided synthesis and biological evaluation of analogues of culicinin D, a potent anticancer peptaibol” (Bioorg Med Chem Lett, 2020).
Numbered stars: 1 amine (or outer) side, 2 acyl side, 3 side chain; on linkers, the order of the positions; unused ones are H or OH. Square brackets hold non-standard residues; d marks the D form. Peptide text beside a SMILES is read from it. * marks the point of attachment. ξ: configuration not given here. X1 = CCC(=O)C[C@H](O)C[C@@H](C)C[C@H](N[*:1])C(=O)[*:2]; Gly(1-adamantyl) = N[C@H](C(=O)O)C12CC3CC(CC(C3)C1)C2; Nva(5-pentanoyl) = CCCCC(=O)CCC[C@H](N)C(=O)O; NH((S)CH(Me)CH2NHC2H4OH) = C[C@@H](CNCCO)N*; Gly(octyl) = CCCCCCCC[C@H](N)C(=O)O; X2 = O=C([C@H](CCCCO)N[*:1])[*:2]; X3 = C[C@H](NC[C@H](C)N*)C(=O)O; Ac5c = NC1(C(=O)O)CCCC1; Nva = CCC[C@H](N)C(=O)O; Ac3c = NC1(C(=O)O)CC1; Aib = CC(C)(N)C(=O)O; Butyryl = CCCC(=O)*; ξP = O=C(O)C1CCCN1; βAla = NCCC(=O)O

Experiments:
Assay type in all cases: functional, cell-based
T47D = test: Antiproliferative activity against human T47D cells
MDA-MB-468 = test: Antiproliferative activity against human MDA-MB-468 cells
NCI-H460 = test: Antiproliferative activity against human NCI-H460 cells
SK-BR-3 = test: Antiproliferative activity against human SKBR3 cells

## CCCCCCCC[C@H](NC(=O)C(C)(C)NC(=O)C(C)(C)NC(=O)[C@@H](NC(=O)[C@@H]1CCCN1C(=O)CCC)C12CC3CC(CC(C3)C1)C2)C(=O)N[C@@H](CC(C)C)C(=O)NC(C)(C)C(=O)N[C@@H](CC(C)C)C(=O)NCCC(=O)N[C@@H](C)CNCCO (Butyryl-P[Gly(1-adamantyl)][Aib][Aib][Gly(octyl)]L[Aib]L[βAla]-{NH((S)CH(Me)CH2NHC2H4OH)})
T47D
  IC50: 16 nM
MDA-MB-468
  IC50: 21 nM
NCI-H460
  IC50: 17 nM
SK-BR-3
  IC50: 72 nM

## CCCCCCCC[C@H](NC(=O)C(C)(C)NC(=O)C(C)(C)NC(=O)[C@H](CCCC(=O)CCCC)NC(=O)C1CCCN1C(=O)CCC)C(=O)N[C@@H](CC(C)C)C(=O)NC(C)(C)C(=O)N[C@@H](CC(C)C)C(=O)N[C@@H](C)C(=O)N[C@@H](C)CNCCO (stereo partly drawn) (Butyryl-[ξP][Nva(5-pentanoyl)][Aib][Aib][Gly(octyl)]L[Aib]LA-{NH((S)CH(Me)CH2NHC2H4OH)})
T47D
  IC50: 21 nM
MDA-MB-468
  IC50: 26 nM
NCI-H460
  IC50: 16 nM
SK-BR-3
  IC50: 36 nM

## CCCCC(=O)CCC[C@H](NC(=O)C1CCCN1C(=O)CCC)C(=O)NC(C)(C)C(=O)NC(C)(C)C(=O)N[C@@H](C)C(=O)N[C@@H](CC(C)C)C(=O)NC(C)(C)C(=O)N[C@@H](CC(C)C)C(=O)NCCC(=O)N[C@@H](C)CNCCO (stereo partly drawn) (Butyryl-[ξP][Nva(5-pentanoyl)][Aib][Aib]AL[Aib]L[βAla]-{NH((S)CH(Me)CH2NHC2H4OH)})
T47D
  IC50: > 1000 nM
MDA-MB-468
  IC50: > 1000 nM
NCI-H460
  IC50: > 1000 nM
SK-BR-3
  IC50: > 1000 nM

## CCCCCCCC[C@H](NC(=O)[C@@H]1CCCN1C(=O)CCC)C(=O)NC(C)(C)C(=O)NC(C)(C)C(=O)N[C@@H](CCCCCCCC)C(=O)N[C@@H](CC(C)C)C(=O)NC(C)(C)C(=O)N[C@@H](CC(C)C)C(=O)NCCC(=O)N[C@@H](C)CNCCO (Butyryl-P[Gly(octyl)][Aib][Aib][Gly(octyl)]L[Aib]L[βAla]-{NH((S)CH(Me)CH2NHC2H4OH)})
T47D
  IC50: 7 nM
MDA-MB-468
  IC50: 5 nM
NCI-H460
  IC50: 5 nM
SK-BR-3
  IC50: 15 nM

## CCCC(=O)N1CCC[C@H]1C(=O)N[C@@H](C[C@H](C)C[C@@H](O)CC(=O)CC)C(=O)NC(C)(C)C(=O)NC(C)(C)C(=O)N[C@@H](C)C(=O)N[C@@H](CC(C)C)C(=O)NC(C)(C)C(=O)N[C@@H](CC(C)C)C(=O)NCCC(=O)N[C@@H](C)CNCCO (Butyryl-P[X1][Aib][Aib]AL[Aib]L[βAla]-{NH((S)CH(Me)CH2NHC2H4OH)})
T47D
  IC50: > 1000 nM
MDA-MB-468
  IC50: > 1000 nM
NCI-H460
  IC50: > 10000 nM
SK-BR-3
  IC50: > 30000 nM

## CCCCCCCC[C@H](NC(=O)C(C)(C)NC(=O)C(C)(C)NC(=O)[C@H](Cc1ccccc1)NC(=O)[C@@H]1CCCN1C(=O)CCC)C(=O)N[C@@H](CC(C)C)C(=O)NC(C)(C)C(=O)N[C@@H](CC(C)C)C(=O)NCCC(=O)N[C@@H](C)CNCCO (Butyryl-PF[Aib][Aib][Gly(octyl)]L[Aib]L[βAla]-{NH((S)CH(Me)CH2NHC2H4OH)})
T47D
  IC50: 8 nM
MDA-MB-468
  IC50: 7 nM
NCI-H460
  IC50: 6 nM
SK-BR-3
  IC50: 25 nM

## CCCCCCCC[C@H](NC(=O)C(C)(C)NC(=O)C(C)(C)NC(=O)[C@H](CCCC(=O)CCCC)NC(=O)C1CCCN1C(=O)CCC)C(=O)N[C@@H](CC(C)C)C(=O)NC(C)(C)C(=O)N[C@@H](CC(C)C)C(=O)NCCC(=O)N[C@@H](C)CN[C@@H](C)C(=O)O (stereo not given in full) (Butyryl-[ξP][Nva(5-pentanoyl)][Aib][Aib][Gly(octyl)]L[Aib]L[βAla]-X3)
T47D
  IC50: > 500 nM
MDA-MB-468
  IC50: > 500 nM
NCI-H460
  IC50: 291 nM
SK-BR-3
  IC50: > 1000 nM

## CCCCCCCC[C@H](NC(=O)C(C)(C)NC(=O)C(C)(C)NC(=O)C1(NC(=O)[C@@H]2CCCN2C(=O)CCC)CC1)C(=O)N[C@@H](CC(C)C)C(=O)NC(C)(C)C(=O)N[C@@H](CC(C)C)C(=O)NCCC(=O)N[C@@H](C)CNCCO (Butyryl-P[Ac3c][Aib][Aib][Gly(octyl)]L[Aib]L[βAla]-{NH((S)CH(Me)CH2NHC2H4OH)})
T47D
  IC50: 57 nM
MDA-MB-468
  IC50: 64 nM
NCI-H460
  IC50: 87 nM
SK-BR-3
  IC50: 236 nM

## CCCCCCCC[C@H](NC(=O)C(C)(C)NC(=O)C(C)(C)NC(=O)[C@H](CCSC)NC(=O)[C@@H]1CCCN1C(=O)CCC)C(=O)N[C@@H](CC(C)C)C(=O)NC(C)(C)C(=O)N[C@@H](CC(C)C)C(=O)NCCC(=O)N[C@@H](C)CNCCO (Butyryl-PM[Aib][Aib][Gly(octyl)]L[Aib]L[βAla]-{NH((S)CH(Me)CH2NHC2H4OH)})
T47D
  IC50: 8 nM
MDA-MB-468
  IC50: 11 nM
NCI-H460
  IC50: 10 nM
SK-BR-3
  IC50: 43 nM

## CCCCCCCC[C@H](NC(=O)C(C)(C)NC(=O)C(C)(C)NC(=O)C1(NC(=O)[C@@H]2CCCN2C(=O)CCC)CCCC1)C(=O)N[C@@H](CC(C)C)C(=O)NC(C)(C)C(=O)N[C@@H](CC(C)C)C(=O)NCCC(=O)N[C@@H](C)CNCCO (Butyryl-P[Ac5c][Aib][Aib][Gly(octyl)]L[Aib]L[βAla]-{NH((S)CH(Me)CH2NHC2H4OH)})
T47D
  IC50: 29 nM
MDA-MB-468
  IC50: 29 nM
NCI-H460
  IC50: 36 nM
SK-BR-3
  IC50: 118 nM

## CCCC(=O)N1CCC[C@H]1C(=O)N[C@@H](C[C@H](C)C[C@@H](O)CC(=O)CC)C(=O)NC(C)(C)C(=O)NC(C)(C)C(=O)N[C@@H](CCC)C(=O)N[C@@H](CC(C)C)C(=O)NC(C)(C)C(=O)N[C@@H](CC(C)C)C(=O)NCCC(=O)N[C@@H](C)CNCCO (Butyryl-P[X1][Aib][Aib][Nva]L[Aib]L[βAla]-{NH((S)CH(Me)CH2NHC2H4OH)})
T47D
  IC50: 420 nM
MDA-MB-468
  IC50: 274 nM
NCI-H460
  IC50: > 1000 nM
SK-BR-3
  IC50: > 1000 nM

## CCCCCCCC[C@H](NC(=O)C(C)(C)NC(=O)C(C)(C)NC(=O)[C@H](Cc1c[nH]c2ccccc12)NC(=O)[C@@H]1CCCN1C(=O)CCC)C(=O)N[C@@H](CC(C)C)C(=O)NC(C)(C)C(=O)N[C@@H](CC(C)C)C(=O)NCCC(=O)N[C@@H](C)CNCCO (Butyryl-PW[Aib][Aib][Gly(octyl)]L[Aib]L[βAla]-{NH((S)CH(Me)CH2NHC2H4OH)})
T47D
  IC50: 15 nM
MDA-MB-468
  IC50: 21 nM
NCI-H460
  IC50: 23 nM
SK-BR-3
  IC50: 60 nM

## CCCCCCCC[C@H](NC(=O)C(C)(C)NC(=O)C(C)(C)NC(=O)[C@H](C)NC(=O)C1CCCN1C(=O)CCC)C(=O)N[C@@H](CC(C)C)C(=O)NC(C)(C)C(=O)N[C@@H](CC(C)C)C(=O)NCCC(=O)N[C@@H](C)CNCCO (stereo partly drawn) (Butyryl-[ξP]A[Aib][Aib][Gly(octyl)]L[Aib]L[βAla]-{NH((S)CH(Me)CH2NHC2H4OH)})
T47D
  IC50: 61 nM
MDA-MB-468
  IC50: 68 nM
NCI-H460
  IC50: 71 nM
SK-BR-3
  IC50: 343 nM

## CCCCCCCC[C@H](NC(=O)C(C)(C)NC(=O)C(C)(C)NC(=O)[C@H](CCCCO)NC(=O)[C@@H]1CCCN1C(=O)CCC)C(=O)N[C@@H](CC(C)C)C(=O)NC(C)(C)C(=O)N[C@@H](CC(C)C)C(=O)NCCC(=O)N[C@@H](C)CNCCO (Butyryl-P[X2][Aib][Aib][Gly(octyl)]L[Aib]L[βAla]-{NH((S)CH(Me)CH2NHC2H4OH)})
T47D
  IC50: 49 nM
MDA-MB-468
  IC50: 39 nM
NCI-H460
  IC50: 45 nM
SK-BR-3
  IC50: 270 nM

## CCCCCCCC[C@H](NC(=O)C(C)(C)NC(=O)C(C)(C)NC(=O)[C@H](CCCC(=O)CCCC)NC(=O)[C@H](C)N)C(=O)N[C@@H](CC(C)C)C(=O)NC(C)(C)C(=O)N[C@@H](CC(C)C)C(=O)NCCC(=O)N[C@@H](C)CNCCO (H-A[Nva(5-pentanoyl)][Aib][Aib][Gly(octyl)]L[Aib]L[βAla]-{NH((S)CH(Me)CH2NHC2H4OH)})
T47D
  IC50: 6 nM
MDA-MB-468
  IC50: 7 nM
NCI-H460
  IC50: 5 nM
SK-BR-3
  IC50: 18 nM
